Drawing on PubChem BioAssay AID330 (DTP/NCI, 2004), this text covers T/C for 25 molecules.

For this test, the system named is P388 leukemia ip, CD2F1 mice, survival T/C. Briefly: NCI In Vivo Anticancer Drug Screen. Data for tumor model P388 Leukemia (intraperitoneal) in CD2F1 (CDF1) mice. The note with it: endpoint: median survival time, higher = longer survival. A digest of the protocol: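 Mice carrying the transplanted tumor received test compound or vehicle. Survival was recorded in each group, and the value is the treated-group measurement divided by that of the vehicle-treated control group.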

Setting [1] is: dose: 12.5 mg/kg/injection, schedule: Q01DX009 (ip), vehicle: Klucel (hydroxypropylcellulose) (HPC).
Where [2] appears, read: dose: 25.0 mg/kg/injection, schedule: Q01DX009 (ip), vehicle: Klucel (hydroxypropylcellulose) (HPC).
Setting [3] is: dose: 100.0 mg/kg/injection, schedule: Q01DX009 (ip), vehicle: saline.
Setting [4] is: dose: 200.0 mg/kg/injection, schedule: Q01DX009 (ip), vehicle: saline.
The mark [5] stands for this setting: dose: 50.0 mg/kg/injection, schedule: Q01DX009 (ip), vehicle: Klucel (hydroxypropylcellulose) (HPC).
The mark [6] stands for this setting: dose: 100.0 mg/kg/injection, schedule: Q01DX009 (ip), vehicle: Klucel (hydroxypropylcellulose) (HPC).
Setting [7] is: dose: 200.0 mg/kg/injection, schedule: Q01DX009 (ip), vehicle: Klucel (hydroxypropylcellulose) (HPC).
The mark [8] stands for this setting: dose: 200.0 mg/kg/injection, schedule: Q04DX003 (ip), vehicle: saline with Tween-80.
[9] abbreviates: dose: 100.0 mg/kg/injection, schedule: Q01DX005 (ip), vehicle: Klucel (hydroxypropylcellulose) (HPC).
Setting [10] is: dose: 50.0 mg/kg/injection, schedule: Q01DX005 (ip), vehicle: Klucel (hydroxypropylcellulose) (HPC).
Setting [11] is: dose: 25.0 mg/kg/injection, schedule: Q01DX009 (ip), vehicle: saline with Tween-80.
Setting [12] is: dose: 50.0 mg/kg/injection, schedule: Q01DX009 (ip), vehicle: saline with Tween-80.
Setting [13] is: dose: 100.0 mg/kg/injection, schedule: Q01DX009 (ip), vehicle: saline with Tween-80.
[14] abbreviates: dose: 200.0 mg/kg/injection, schedule: Q01DX009 (ip), vehicle: saline with Tween-80.

Each structure is given as a SMILES string. Several values for one entry are separate records, joined by “and”; a condition that tells them apart may be missing. Equal entries are not always repeated. Toxic doses and inconclusive results are not listed. Square brackets hold non-standard residues; d marks the D form. Peptide text beside a SMILES is read from it. ξ: configuration not given here. ξLac(3-iPr) = CC(C)CC(O)C(=O)O; NMeV = CN[CH](C(=O)O)C(C)C; NMeA = CN[CH](C)C(=O)O; βAla = NCCC(=O)O

`O=c1c(O)c(-c2cc(O)c(O)c(O)c2)oc2cc(O)cc(O)c12`: the T/C runs as follows: (dose: 6.25 mg/kg/injection, schedule: Q01DX009 (ip), vehicle: Klucel (hydroxypropylcellulose) (HPC)) 105 % of control; under setting [1], 112 % of control; under setting [2], 124 % of control; (dose: 100.0 mg/kg/injection, schedule: Q01DX009 (ip), vehicle: other) 89 % of control; (dose: 200.0 mg/kg/injection, schedule: Q01DX009 (ip), vehicle: other) 98 % of control.
Consider `CCOC(=O)CC(=O)C(C)(OCC)OCC`, for which the T/C runs as follows: under setting [3], 157 % of control; under setting [4], 190 % of control.
For `COc1ccc2c(c1)CCc1nc3n(c1-2)C(O)(c1ccccc1)C(CC(=O)O)S3` (configuration not stated), the T/C runs as follows: under setting [5], 94 % of control; under setting [6], 105 % of control; under setting [7], 103 % of control.
Take `O=C1CC2(CCCC2)C(=O)N1c1cccc([N+](=O)[O-])c1`: the T/C was 92 % of control under setting [5], 106 % of control under setting [6] and 101 % of control under setting [7].
As for `C=CCOC(=O)OCCO`, the T/C was 101 % of control (dose: 60.0 mg/kg/injection, schedule: Q01DX005 (ip), vehicle: saline); 108 % of control (dose: 120.0 mg/kg/injection, schedule: Q01DX005 (ip), vehicle: saline); 99 % of control (dose: 240.0 mg/kg/injection, schedule: Q01DX005 (ip), vehicle: saline).
For the molecule `COc1cc(/C=N\N=C\c2cc(OC)c(OC)c(OC)c2)cc(OC)c1OC`, the T/C under setting [8] was 100 % of control.
For the molecule `CC1=N/C(=C\c2ccccc2)C(=O)N1c1ccccc1`, the T/C was 98 % of control under setting [9]; 104 % of control (dose: 200.0 mg/kg/injection, schedule: Q01DX005 (ip), vehicle: Klucel (hydroxypropylcellulose) (HPC)); 105 % of control (dose: 400.0 mg/kg/injection, schedule: Q01DX005 (ip), vehicle: Klucel (hydroxypropylcellulose) (HPC)).
Regarding `O=C(/C=C/c1ccc(Cl)cc1)c1ccccc(=O)c1O`, the T/C reads like this: under setting [10], 101 % of control; under setting [9], 100 % of control.
For `CC(C)OC(=O)Oc1cccs1`, the T/C runs as follows: (dose: 12.5 mg/kg/injection, schedule: Q01DX009 (ip), vehicle: saline with Tween-80) 100 % of control; under setting [11], 109 % of control; under setting [12], 100 % of control.
On to `BrCc1ccccc1C[P+](c1ccccc1)(c1ccccc1)c1ccccc1`, for which the T/C (dose: 1.5 mg/kg/injection, schedule: Q01DX009 (ip), vehicle: saline) is 113 % of control and the T/C (dose: 3.13 mg/kg/injection, schedule: Q01DX009 (ip), vehicle: saline) was 104 % of control.
`Cc1cc(C(=O)O)c(C)c([N+](=O)[O-])c1`: the T/C is 88 % of control under setting [12]; 104 % of control under setting [13]; 98 % of control under setting [14]; 100 % of control (dose: 400.0 mg/kg/injection, schedule: Q01DX009 (ip), vehicle: saline with Tween-80).
`CCCCCC(CN1CCCCC1)C(=O)/C=C/c1ccccc1` (configuration not stated): the T/C under setting [11] was 101 % of control, the T/C under setting [12] is 107 % of control and the T/C under setting [13] is 117 % of control.
Regarding `CCOC(=O)CN(C)C(c1ccccc1)c1cccs1` (configuration not stated), the T/C (dose: 100.0 mg/kg/injection, schedule: Q04DX002 (ip), vehicle: Klucel (hydroxypropylcellulose) (HPC)) is 102 % of control and the T/C (dose: 200.0 mg/kg/injection, schedule: Q04DX002 (ip), vehicle: Klucel (hydroxypropylcellulose) (HPC)) was 105 % of control.
For the molecule `Nc1nnc(/C=C/c2ccc(Cl)c(Cl)c2)o1`, the T/C is, setting by setting: (dose: 60.0 mg/kg/injection, schedule: Q01DX005 (ip), vehicle: saline with Tween-80) 95 % of control; (dose: 120.0 mg/kg/injection, schedule: Q01DX005 (ip), vehicle: saline with Tween-80) 103 % of control; (dose: 240.0 mg/kg/injection, schedule: Q01DX005 (ip), vehicle: saline with Tween-80) 102 % of control.
For the molecule `C/C=C1\CN2CCC34c5ccc(OC)cc5N(C)C3C2CC1C4C(=O)OC` (configuration not stated), the T/C (dose: 17.25 mg/kg/injection, schedule: Q01DX005 (ip), vehicle: acid diluted with saline) was 96 % of control and the T/C (dose: 34.5 mg/kg/injection, schedule: Q01DX005 (ip), vehicle: acid diluted with saline) is 94 % of control.
Turning to `COc1ccc2c(c1)[nH]c1c(/C=C/c3ccc([N+](=O)[O-])cc3)nccc12`, the T/C is 107 % of control (dose: 30.0 mg/kg/injection, schedule: Q01DX005 (ip), vehicle: Klucel (hydroxypropylcellulose) (HPC)); 103 % of control (dose: 60.0 mg/kg/injection, schedule: Q01DX005 (ip), vehicle: Klucel (hydroxypropylcellulose) (HPC)); 105 % of control (dose: 120.0 mg/kg/injection, schedule: Q01DX005 (ip), vehicle: Klucel (hydroxypropylcellulose) (HPC)); 90 % of control (dose: 240.0 mg/kg/injection, schedule: Q01DX005 (ip), vehicle: Klucel (hydroxypropylcellulose) (HPC)).
Take `O=C(O)c1ccccc1-c1nc2ccccc2[nH]1`: under “dose: 100.0 mg/kg/injection, schedule: Q01DX001 (ip), vehicle: saline with Tween-80”, the T/C is 99 % of control.
With `N#CN(Cc1ccccc1)C(c1ccccc1)(c1ccccc1)c1ccccc1`, the T/C is 90 % of control (dose: 100.0 mg/kg/injection, schedule: Q01DX001 (ip), vehicle: Klucel (hydroxypropylcellulose) (HPC)) and 91 % of control (dose: 200.0 mg/kg/injection, schedule: Q01DX001 (ip), vehicle: Klucel (hydroxypropylcellulose) (HPC)).
Consider `CC1=C(c2ccccc2)C2(c3ccccc3)[N-][n+]3c(ccc4ccccc43)C2(C)C1=O` (configuration not stated), for which the T/C reads like this: under setting [10], 97 % of control; under setting [9], 97 % of control.
With `CN(C)c1nc(N/N=C/c2ccc([N+](=O)[O-])cc2)nc(N(C)C)n1`, the T/C is 98 % of control (dose: 100.0 mg/kg/injection, schedule: Q04DX003 (ip), vehicle: saline with Tween-80); 105 % of control under setting [8]; 93 % of control (dose: 400.0 mg/kg/injection, schedule: Q04DX003 (ip), vehicle: saline with Tween-80).
As for `CCC(C)C1NC(=O)C2CCCN2C(=O)C(CC(C)C)OC(=O)CCNC(=O)C(C)N(C)C(=O)C(C(C)C)N(C)C1=O` (configuration not stated) (cyclo([ξLac(3-iPr)]PI[NMeV][NMeA][βAla]); configuration not given here), the T/C (dose: 0.63 mg/kg/injection, schedule: Q01DX009 (ip), vehicle: saline) was 115 % of control; the T/C (dose: 1.25 mg/kg/injection, schedule: Q01DX009 (ip), vehicle: saline) was 113 % of control; the T/C (dose: 2.5 mg/kg/injection, schedule: Q01DX009 (ip), vehicle: saline) was 117 % of control; the T/C (dose: 5.0 mg/kg/injection, schedule: Q01DX005 (ip), vehicle: saline with Tween-80) was 123 % of control; the T/C (dose: 5.0 mg/kg/injection, schedule: Q01DX009 (ip), vehicle: saline) was 120 % of control; the T/C (dose: 10.0 mg/kg/injection, schedule: Q01DX005 (ip), vehicle: saline with Tween-80) is 119 % of control.
In the case of `O=c1c2ccccc2nc(-c2ccccc2)n1O`, the T/C runs as follows: under setting [1], 103 % of control and 112 % of control; under setting [2], 118 % of control and 94 % of control; under setting [5], 120 % of control; under setting [6], 94 % of control; under setting [7], 91 % of control.
Regarding `COc1cc(NN=C(C#N)C#N)c(OC)cc1Cl`, the T/C is 102 % of control (dose: 6.25 mg/kg/injection, schedule: Q01DX005 (ip), vehicle: Klucel (hydroxypropylcellulose) (HPC)); 107 % of control (dose: 12.5 mg/kg/injection, schedule: Q01DX005 (ip), vehicle: Klucel (hydroxypropylcellulose) (HPC)); 107 % of control (dose: 25.0 mg/kg/injection, schedule: Q01DX005 (ip), vehicle: Klucel (hydroxypropylcellulose) (HPC)).
As for `O=C(O)/C(O)=C/c1ccccc1`, the T/C reads like this: (dose: 25.0 mg/kg/injection, schedule: Q04DX003 (ip), vehicle: saline with Tween-80) 102 % of control; under setting [8], 111 % of control.
Regarding `Cn1cnc([N+](=O)[O-])c1Sc1ncccn1`, the T/C under setting [11] was 106 % of control; the T/C (dose: 25.0 mg/kg/injection, schedule: Q01DX009 (ip), vehicle: saline) was 98 % of control; the T/C under setting [12] is 98 % of control; the T/C (dose: 50.0 mg/kg/injection, schedule: Q01DX009 (ip), vehicle: saline) is 104 % of control and 108 % of control; the T/C under setting [13] was 100 % of control; the T/C under setting [3] was 108 % of control and 112 % of control. Further, the T/C runs as follows: under setting [14], 106 % of control; under setting [4], 114 % of control and 122 % of control.
